# ChEMBL document CHEMBL1201862, “PubChem BioAssay data set” (2004)
#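 Test compounds were applied to cells in 96-well plates for 48 hours at 5 doses. GI50 = concentration required for 50% inhibition of growth.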 The source made the active and inactive calls. Rule as the data show it: active = GI50 up to about 1.1 µM and inactive = higher.
# Legend:
# Experiment in all cases: NCI-60 cell line screen, 48 h
# ACHN = test system: ACHN
# HCC 2998 = test system: HCC 2998
# RPMI-8226 = test system: RPMI-8226
# UO-31 = test system: UO-31
# SF-268 = test system: SF-268
# HT-29 = test system: HT-29
# HCT-15 = test system: HCT-15
# RXF 393 = test system: RXF 393
# BT-549 = test system: BT-549
# PC-3 = test system: PC-3
# NCI-H460 = test system: NCI-H460
# A498 = test system: A498
# SW-620 = test system: SW-620
# SK-MEL-5 = test system: SK-MEL-5
# MOLT-4 = test system: MOLT-4
# Malme-3M = test system: Malme-3M
# MCF7 = test system: MCF7
# EKVX = test system: EKVX
# NCI-H522 = test system: NCI-H522
# HL-60 = test system: HL-60
SMILES,GI50 (ACHN),GI50 (HCC 2998),GI50 (RPMI-8226),GI50 (UO-31),GI50 (SF-268),GI50 (HT-29),GI50 (HCT-15),GI50 (RXF 393),GI50 (BT-549),GI50 (PC-3),GI50 (NCI-H460),GI50 (A498),GI50 (SW-620),GI50 (SK-MEL-5),GI50 (MOLT-4),GI50 (Malme-3M),GI50 (MCF7),GI50 (EKVX),GI50 (NCI-H522),GI50 (HL-60)
Cn1nc(Cc2ccc(Cl)cc2)n(N)c1=O,> 100 µM (inactive),> 100 µM (inactive),> 100 µM (inactive),> 100 µM (inactive),> 100 µM (inactive),> 100 µM (inactive),> 100 µM,> 100 µM (inactive),> 100 µM (inactive),> 100 µM (inactive),> 100 µM (inactive),> 100 µM (inactive),> 100 µM (inactive),> 100 µM (inactive),> 100 µM (inactive),> 100 µM (inactive),> 100 µM (inactive),–,–,–
Cc1ccc(OC2CC(n3cnc4ncnc(Cl)c43)OC2Oc2ccc(C)cc2)cc1 (configuration not stated),2.59 µM (inactive),8.04 µM (inactive),2.81 µM (inactive),11.1 µM (inactive),18.7 µM (inactive),16.9 µM (inactive),13.8 µM,–,25.4 µM (inactive),16.4 µM (inactive),12.7 µM (inactive),45.6 µM (inactive),48.5 µM (inactive),18.5 µM (inactive),4.49 µM (inactive),40.5 µM (inactive),5.96 µM (inactive),33.3 µM (inactive),5.36 µM (inactive),3.77 µM (inactive)
CCOc1ccc2c(c1)c(=O)c1c(NCCN(CC)CC)ccc3nnn2c31,15.6 µM (inactive),> 33.6 µM (inactive),15.1 µM (inactive),3.4 µM (inactive),21.5 µM (inactive),12.6 µM (inactive),16.9 µM,8.55 µM (inactive),> 71.3 µM (inactive),18.8 µM (inactive),10.9 µM (inactive),> 100 µM (inactive),12.6 µM (inactive),16.3 µM (inactive),3.34 µM (inactive),17.1 µM (inactive),12.3 µM (inactive),83.2 µM (inactive),7.6 µM (inactive),–
CN(CCC(=O)N1CC(CCl)c2ccc([N+](=O)[O-])cc21)CCC(=O)N1CC(CCl)c2ccc([N+](=O)[O-])cc21 (configuration not stated),0.074 µM (active),5.79 µM (inactive),3.96 µM (inactive),–,12.1 µM (inactive),11.7 µM (inactive),13.2 µM,–,23.6 µM (inactive),6.52 µM (inactive),24.7 µM (inactive),19.3 µM (inactive),15.6 µM (inactive),12.3 µM (inactive),4.25 µM (inactive),10.1 µM (inactive),11.4 µM (inactive),12.7 µM (inactive),6.53 µM (inactive),–
Cn1c(=O)c2c(no[n+]2[O-])c2ccccc21,26.5 µM (inactive),12.9 µM (inactive),22.2 µM (inactive),24.3 µM (inactive),20.5 µM (inactive),17.5 µM (inactive),11.1 µM,19.9 µM (inactive),15 µM (inactive),24.9 µM (inactive),17.8 µM (inactive),31.9 µM (inactive),20 µM (inactive),12.4 µM (inactive),10.5 µM (inactive),14.2 µM (inactive),24.7 µM (inactive),18.3 µM (inactive),13.6 µM (inactive),–
O=C(COc1ccc(OCC(=O)N2C(=O)CC(=O)N(c3ccc(Cl)cc3)C2=S)cc1)N1C(=O)CC(=O)N(c2ccc(Cl)cc2)C1=S,27.4 µM (inactive),28.5 µM (inactive),49.5 µM (inactive),31.7 µM (inactive),40.4 µM (inactive),24.6 µM (inactive),24.3 µM,31.6 µM (inactive),23.3 µM (inactive),29.3 µM (inactive),29.2 µM (inactive),47.3 µM (inactive),53.1 µM (inactive),29.7 µM (inactive),17.9 µM (inactive),3.26 µM (inactive),35.1 µM (inactive),42.2 µM (inactive),17 µM (inactive),–
CCCCn1c2c(n(CCCC)c1=S)-c1c(n(CCCC)c(=S)n1CCCC)SSSS2,0.966 µM (active),7.59 µM (inactive),0.399 µM (active),0.881 µM (active),3.44 µM (inactive),2.26 µM (inactive),0.557 µM,2.7 µM (inactive),0.973 µM (active),0.414 µM (active),30.8 µM (inactive),> 47.2 µM (inactive),0.348 µM (active),2.09 µM (inactive),0.454 µM (active),0.36 µM (active),2.68 µM (inactive),1.31 µM (inactive),0.0785 µM (active),–
C/C(=N\NC(N)=S)c1cccs1.OB(O)c1ccccc1,> 100 µM (inactive),> 100 µM (inactive),> 100 µM (inactive),66.7 µM (inactive),> 100 µM (inactive),> 100 µM (inactive),> 100 µM,–,> 100 µM (inactive),> 100 µM (inactive),> 100 µM (inactive),> 100 µM (inactive),> 100 µM (inactive),> 100 µM (inactive),> 100 µM (inactive),> 100 µM (inactive),> 100 µM (inactive),–,70.6 µM (inactive),> 100 µM (inactive)
CNc1ncnc2c1cnn2Cc1cn(CCCCO)nn1,> 100 µM (inactive),> 100 µM (inactive),> 100 µM (inactive),> 100 µM (inactive),> 100 µM (inactive),> 100 µM (inactive),> 100 µM,> 100 µM (inactive),> 100 µM (inactive),> 100 µM (inactive),> 100 µM (inactive),> 100 µM (inactive),> 100 µM (inactive),> 100 µM (inactive),> 100 µM (inactive),> 100 µM (inactive),> 100 µM (inactive),> 100 µM (inactive),> 100 µM (inactive),–
c1ccc(/N=C(\N2CCOCC2)N(CCN2CCOCC2)c2ccccc2)cc1,–,> 100 µM (inactive),> 100 µM (inactive),45.2 µM (inactive),> 100 µM (inactive),> 100 µM (inactive),> 100 µM,> 100 µM (inactive),> 100 µM (inactive),> 100 µM (inactive),> 100 µM (inactive),–,> 100 µM (inactive),> 100 µM (inactive),> 100 µM (inactive),> 100 µM (inactive),> 100 µM (inactive),> 100 µM (inactive),> 100 µM (inactive),> 10 µM (inactive)
c1ccc(CCCN2C3CCC2CN(CCOC(c2ccccc2)c2ccccc2)C3)cc1,13.4 µM (inactive),5.21 µM (inactive),3.11 µM (inactive),12.2 µM (inactive),14 µM (inactive),3.58 µM (inactive),4.72 µM,–,12.4 µM (inactive),6.43 µM (inactive),8.75 µM (inactive),10.1 µM (inactive),15.6 µM (inactive),3.3 µM (inactive),8.43 µM (inactive),12.5 µM (inactive),12.6 µM (inactive),7.46 µM (inactive),10.9 µM (inactive),5.69 µM (inactive)
O=C1OC(c2ccco2)=N/C1=C\c1cccc([N+](=O)[O-])c1,> 100 µM (inactive),> 100 µM (inactive),> 100 µM (inactive),–,> 100 µM (inactive),> 100 µM (inactive),> 100 µM,–,> 100 µM (inactive),> 100 µM (inactive),> 100 µM (inactive),> 100 µM (inactive),> 100 µM (inactive),> 100 µM (inactive),> 100 µM (inactive),> 100 µM (inactive),> 100 µM (inactive),> 100 µM (inactive),> 100 µM (inactive),> 100 µM (inactive)
O=C(Nc1ccccc1)OCCN=C1c2ccccc2CCc2ccccc21,15.4 µM (inactive),27.5 µM (inactive),12.8 µM (inactive),17.3 µM (inactive),25.6 µM (inactive),18.5 µM (inactive),15.7 µM,19.4 µM (inactive),21 µM (inactive),19.6 µM (inactive),21.4 µM (inactive),–,35 µM (inactive),13.4 µM (inactive),9.73 µM (inactive),22.5 µM (inactive),24 µM (inactive),33.2 µM (inactive),–,13.8 µM (inactive)
C/C=C\C(CC(=O)NCCC1CN(C(=O)c2ccccc2)c2ccccc21)CC(=O)OC (configuration not stated),> 100 µM (inactive),> 100 µM (inactive),> 100 µM (inactive),> 100 µM (inactive),> 100 µM (inactive),> 100 µM (inactive),> 100 µM,> 100 µM (inactive),> 100 µM (inactive),> 100 µM (inactive),> 100 µM (inactive),> 100 µM (inactive),> 100 µM (inactive),97.3 µM (inactive),> 100 µM (inactive),> 100 µM (inactive),> 100 µM (inactive),> 100 µM (inactive),> 100 µM (inactive),–
CC(=O)O/C(=C(/C#N)C(=O)O)C1C(C(=O)O)C(c2ccccc2[N+](=O)[O-])C=C(c2ccco2)N1c1ccncc1 (configuration not stated),2.17 µM (inactive),4.97 µM (inactive),1.68 µM (inactive),2.87 µM (inactive),9.23 µM (inactive),1.61 µM (inactive),1.71 µM,–,6.04 µM (inactive),6.4 µM (inactive),6.35 µM (inactive),11.2 µM (inactive),1.85 µM (inactive),2.94 µM (inactive),2.54 µM (inactive),8.43 µM (inactive),1.03 µM (active),9.25 µM (inactive),2.09 µM (inactive),2.75 µM (inactive)
